Measured values reported in ChEMBL document CHEMBL4152282, “Synthesis and photodynamic activities of integrin-targeting silicon(IV) phthalocyanine-cRGD conjugates” (Eur J Med Chem, 2018).

Legend:
[1] = tested on: MCF7; assay: Photocytotoxicity against human MCF7 cells with low expression of alphaVbeta3 integrin assessed as decrease in cell viability preincubated for 24 hrs followed by red light irradiation and measured after overnight incubation by MTT assay; type: functional, cell-based; conditions: MCF7, light or radiation study
[2] = Photostability in DMF assessed as release of singlet oxygen at 4 uM preincubated with DPBF in dark followed by irradiation with red light by DPBF decay assay; type: functional
[3] = Selectivity ratio of IC50 for human MCF7 cells with low expression of alphaVbeta3 integrin to IC50 for human HT-29 cells with high expression of alphaVbeta3 integrin preincubated for 2 hrs followed by red light irradiation and measured after overnight incubation by MTT assay; type: functional
[4] = Selectivity ratio of IC50 for human MCF7 cells with low expression of alphaVbeta3 integrin to IC50 for human HT-29 cells with high expression of alphaVbeta3 integrin preincubated for 24 hrs followed by red light irradiation and measured after overnight incubation by MTT assay; type: functional
[5] = tested on: HT-29; assay: Photocytotoxicity against human HT-29 cells with high expression of alphaVbeta3 integrin assessed as decrease in cell viability preincubated for 24 hrs followed by red light irradiation and measured after overnight incubation by MTT assay; type: functional, cell-based; conditions: HT-29, light or radiation study
[6] = tested on: HT-29; assay: Photocytotoxicity against human HT-29 cells with high expression of alphaVbeta3 integrin assessed as decrease in cell viability preincubated for 2 hrs followed by red light irradiation and measured after overnight incubation by MTT assay; type: functional, cell-based; conditions: HT-29, light or radiation study
[7] = Aggregation behavior of compound in DMF by UV-vis absorption spectra analysis; type: physicochemical
[8] = tested on: MCF7; assay: Photocytotoxicity against human MCF7 cells with low expression of alphaVbeta3 integrin assessed as decrease in cell viability preincubated for 2 hrs followed by red light irradiation and measured after overnight incubation by MTT assay; type: functional, cell-based; conditions: MCF7, light or radiation study
[9] = Aggregation behavior of compound in water at 3 uM by UV-vis absorption spectra analysis; type: physicochemical; conditions: buffer
[10] = Aggregation behavior of compound in DMF at 1 to 6 uM by UV-vis absorption spectra analysis; type: physicochemical
[11] = Aggregation behavior of compound in RPMI 1640 medium with 0.05% cremophor EL at 3 uM by UV-vis absorption spectra analysis; type: physicochemical
[12] = Drug uptake in tumor of KM mouse xenografted with […] cells expressing integrin at 0.5 nmol/g, iv measured after 24 hrs by fluorescence imaging method; type: ADME, organism-based, Neoplasm; conditions: in vivo
[13] = Drug uptake in human HT-29 cells at 1 uM after 2 to 24 hrs by confocal laser scanning microscopic method; type: ADME, cell-based; conditions: ht-29, 1 µM
[14] = tested on: Mus musculus; assay: Drug uptake in KM mouse xenografted with […] cells at 0.5 nmol/g, iv measured up to 24 hrs by fluorescence imaging method; type: ADME, organism-based; conditions: in vivo
[15] = Drug uptake in lysosome of human HT-29 cells at 1 uM incubated for 0.5 hrs by Lyso Tracker red dye-based confocal laser scanning microscopic method; type: ADME, subcellular; conditions: ht-29, 0.5 h
[16] = Drug uptake in kidney of KM mouse xenografted with […] cells expressing integrin at 0.5 nmol/g, iv measured after 24 hrs by fluorescence imaging method; type: ADME, organism-based; conditions: in vivo
[17] = Drug uptake in spleen of KM mouse xenografted with […] cells expressing integrin at 0.5 nmol/g, iv measured after 24 hrs by fluorescence imaging method; type: ADME, organism-based; conditions: in vivo
[18] = Drug uptake in liver of KM mouse xenografted with […] cells expressing integrin at 0.5 nmol/g, iv measured after 24 hrs by fluorescence imaging method; type: ADME, organism-based; conditions: in vivo
[19] = Drug uptake in mitochondria of human HT-29 cells at 1 uM incubated for 0.5 hrs by Mito Tracker green dye-based confocal laser scanning microscopic method; type: ADME; conditions: ht-29, 0.5 h
[20] = Drug uptake in skin of KM mouse xenografted with […] cells expressing integrin at 0.5 nmol/g, iv measured after 24 hrs by fluorescence imaging method; type: ADME, organism-based, Zone of skin; conditions: in vivo
[21] = Drug uptake in lung of KM mouse xenografted with […] cells expressing integrin at 0.5 nmol/g, iv measured after 24 hrs by fluorescence imaging method; type: ADME, organism-based; conditions: in vivo
[22] = Drug uptake in heart of KM mouse xenografted with […] cells expressing integrin at 0.5 nmol/g, iv measured after 24 hrs by fluorescence imaging method; type: ADME, organism-based; conditions: in vivo

With `[N-]=[N+]=NCCOCCOCCO[Si]1(OCCOCCOCCO)n2c3c4ccccc4c2/N=C2N=C(/N=c4/c5ccccc5/c(n41)=N/C1=NC(=N\3)/c3ccccc31)c1ccccc1\2` (stereo not drawn) the IC50 [1] was 1.3 nM, the Stability [2] was “Unstable” and the “Ratio IC50” value [3] was 0.83. The “Ratio IC50” value [4] was 0.76, the IC50 [5] was 1.7 nM and the IC50 [6] was 3 nM. For the same compound, the Activity [7] was “Not Active” and the IC50 [8] was 2.5 nM.
For `N=C(N)NCCC[C@@H]1NC(=O)[C@H](Cc2cn(CCOCCO[Si]3(OCCOCCn4cc(C[C@@H]5NC(=O)[C@@H](Cc6ccccc6)NC(=O)[C@H](CC(=O)O)NC(=O)CNC(=O)[C@H](CCCNC(=N)N)NC5=O)nn4)n4c5c6ccccc6c4/N=C4N=C(/N=c6/c7ccccc7/c(n63)=N/C3=NC(=N\5)/c5ccccc53)c3ccccc3\4)nn2)NC(=O)[C@@H](Cc2ccccc2)NC(=O)[C@H](CC(=O)O)NC(=O)CNC1=O` (stereo partly drawn), the IC50 [1] was 23 nM, the Stability [2] was “Unstable” and the “Ratio IC50” value [3] was 1.73. The “Ratio IC50” value [4] was 1.64, the IC50 [5] was 14 nM and the IC50 [6] was 22 nM. For the same compound, the Activity [9] was “Not Active”, the Activity [10] was “Not Active” and the Activity [11] was “Not Active”. It also gave an IC50 [8] of 38 nM.
With `OCCOCCO[Si]1(OCCOCCO)n2c3c4ccccc4c2/N=C2N=C(/N=c4/c5ccccc5/c(n41)=N/C1=NC(=N\3)/c3ccccc31)c1ccccc1\2` the IC50 [1] was 0.9 nM, the Stability [2] was “Unstable” and the “Ratio IC50” value [3] was 0.83. The “Ratio IC50” value [4] was 1.13, the IC50 [5] was 0.8 nM and the IC50 [6] was 1.2 nM. For the same compound, the Activity [7] was “Not Active” and the IC50 [8] was 1 nM.
For `N=C(N)NCCC[C@@H]1NC(=O)[C@H](Cc2cn(CCOCCOCCO[Si]3(OCCOCCOCCO)n4c5c6ccccc6c4/N=C4N=C(/N=c6/c7ccccc7/c(n63)=N/C3=NC(=N\5)/c5ccccc53)c3ccccc3\4)nn2)NC(=O)[C@@H](Cc2ccccc2)NC(=O)[C@H](CC(=O)O)NC(=O)CNC1=O` (stereo partly drawn), the IC50 [1] was 26 nM, the Stability [2] was “Unstable” and the “Ratio IC50” value [3] was 1.22. The “Ratio IC50” value [4] was 1, the IC50 [5] was 26 nM and the IC50 [6] was 32 nM. The Activity [9] was “Not Active”, the Activity [10] was “Not Active” and the Activity [11] was “Not Active”. For the same compound, the IC50 [8] was 39 nM.
In the case of `[N-]=[N+]=NCCOCCOCCO[Si]1(OCCOCCOCCN=[N+]=[N-])n2c3c4ccccc4c2/N=C2N=C(/N=c4/c5ccccc5/c(n41)=N/C1=NC(=N\3)/c3ccccc31)c1ccccc1\2` (stereo not drawn), the IC50 [1] is reported as 11 nM, the Stability [2] is reported as “Unstable” and the “Ratio IC50” value [3] is reported as 1.4. For the same compound, the “Ratio IC50” value [4] was 1.39, the IC50 [5] was 7.9 nM and the IC50 [6] was 8.6 nM. The Activity [7] was “Not Active” and the IC50 [8] was 12 nM.
For `[N-]=[N+]=NCCOCCOCCOCCO[Si]1(OCCOCCOCCOCCN=[N+]=[N-])n2c3c4ccccc4c2/N=C2N=C(/N=c4/c5ccccc5/c(n41)=N/C1=NC(=N\3)/c3ccccc31)c1ccccc1\2` (stereo not drawn), the IC50 [1] was 4 nM, the Stability [2] was “Unstable” and the “Ratio IC50” value [3] was 1.03. The “Ratio IC50” value [4] was 1.03, the IC50 [5] was 3.9 nM and the IC50 [6] was 6.3 nM. The Activity [7] was “Not Active” and the IC50 [8] was 6.5 nM.
For `N=C(N)NCCC[C@@H]1NC(=O)[C@H](Cc2cn(CCOCCOCCOCCO[Si]3(OCCOCCOCCOCCO)n4c5c6ccccc6c4/N=C4N=C(/N=c6/c7ccccc7/c(n63)=N/C3=NC(=N\5)/c5ccccc53)c3ccccc3\4)nn2)NC(=O)[C@@H](Cc2ccccc2)NC(=O)[C@H](CC(=O)O)NC(=O)CNC1=O` (stereo partly drawn), the IC50 [1] was 33 nM, the Stability [2] was “Unstable” and the “Ratio IC50” value [3] was 1.09. The “Ratio IC50” value [4] was 1.03, the IC50 [5] was 32 nM and the IC50 [6] was 32 nM. The Activity [9] was “Not Active”, the Activity [10] was “Not Active” and the Activity [11] was “Not Active”. It also gave an IC50 [8] of 35 nM.
With `[N-]=[N+]=NCCOCCO[Si]1(OCCOCCN=[N+]=[N-])n2c3c4ccccc4c2/N=C2N=C(/N=c4/c5ccccc5/c(n41)=N/C1=NC(=N\3)/c3ccccc31)c1ccccc1\2` (stereo not drawn) the IC50 [1] was 4.4 nM, the Stability [2] was “Unstable” and the “Ratio IC50” value [3] was 1. The “Ratio IC50” value [4] was 0.62, the IC50 [5] was 7.1 nM and the IC50 [6] was 12 nM. The Activity [7] was “Active” and the IC50 [8] was 12 nM.
In the case of `[N-]=[N+]=NCCOCCOCCOCCO[Si]1(OCCOCCOCCOCCO)n2c3c4ccccc4c2/N=C2N=C(/N=c4/c5ccccc5/c(n41)=N/C1=NC(=N\3)/c3ccccc31)c1ccccc1\2` (stereo not drawn), the IC50 [1] is reported as 1.7 nM, the Stability [2] is reported as “Unstable” and the “Ratio IC50” value [3] is reported as 1.04. For the same compound, the “Ratio IC50” value [4] was 1.21, the IC50 [5] was 1.4 nM and the IC50 [6] was 2.6 nM. For the same compound, the Activity [7] was “Not Active” and the IC50 [8] was 2.7 nM.
In the case of `OCCOCCOCCOCCO[Si]1(OCCOCCOCCOCCO)n2c3c4ccccc4c2/N=C2N=C(/N=c4/c5ccccc5/c(n41)=N/C1=NC(=N\3)/c3ccccc31)c1ccccc1\2`, the IC50 [1] is reported as 0.2 nM, the Stability [2] is reported as “Unstable” and the “Ratio IC50” value [3] is reported as 1. For the same compound, the “Ratio IC50” value [4] was 1, the IC50 [5] was 0.2 nM and the IC50 [6] was 0.2 nM. For the same compound, the Activity [7] was “Not Active” and the IC50 [8] was 0.2 nM.
With `[N-]=[N+]=NCCOCCO[Si]1(OCCOCCO)n2c3c4ccccc4c2/N=C2N=C(/N=c4/c5ccccc5/c(n41)=N/C1=NC(=N\3)/c3ccccc31)c1ccccc1\2` (stereo not drawn) the IC50 [1] was 2.6 nM, the Stability [2] was “Unstable” and the “Ratio IC50” value [3] was 1.15. The “Ratio IC50” value [4] was 1.18, the IC50 [5] was 2.2 nM and the IC50 [6] was 3.2 nM. The Activity [7] was “Not Active” and the IC50 [8] was 3.7 nM.
With `N=C(N)NCCC[C@@H]1NC(=O)[C@H](Cc2cn(CCOCCOCCOCCO[Si]3(OCCOCCOCCOCCn4cc(C[C@@H]5NC(=O)[C@@H](Cc6ccccc6)NC(=O)[C@H](CC(=O)O)NC(=O)CNC(=O)[C@H](CCCNC(=N)N)NC5=O)nn4)n4c5c6ccccc6c4/N=C4N=C(/N=c6/c7ccccc7/c(n63)=N/C3=NC(=N\5)/c5ccccc53)c3ccccc3\4)nn2)NC(=O)[C@@H](Cc2ccccc2)NC(=O)[C@H](CC(=O)O)NC(=O)CNC1=O` (stereo partly drawn) the IC50 [1] was 32 nM, the Stability [2] was “Unstable” and the “Ratio IC50” value [3] was 1.68. The “Ratio IC50” value [4] was 2.46, the IC50 [5] was 13 nM and the IC50 [6] was 19 nM. For the same compound, the Activity [9] was “Not Active”, the Activity [10] was “Not Active” and the Activity [11] was “Not Active”. For the same compound, the IC50 [8] was 32 nM.
With `OCCOCCOCCO[Si]1(OCCOCCOCCO)n2c3c4ccccc4c2/N=C2N=C(/N=c4/c5ccccc5/c(n41)=N/C1=NC(=N\3)/c3ccccc31)c1ccccc1\2` the Drug uptake [12] was “Not Active”, the Drug uptake [13] was “Active” and the IC50 [1] was 0.3 nM. For the same compound, the Stability [2] was “Unstable”, the Drug uptake [14] was “Not Active” and the “Ratio IC50” value [3] was 1. The “Ratio IC50” value [4] was 1, the Drug uptake [15] was “Active” and the Drug uptake [16] was “Not Active”. For the same compound, the IC50 [5] was 0.3 nM, the Drug uptake [17] was “Not Active” and the Drug uptake [18] was “Not Active”. The IC50 [6] was 0.3 nM, the Drug uptake [19] was “Active” and the Drug uptake [20] was “Not Active”. For the same compound, the Activity [7] was “Not Active”, the Drug uptake [21] was “Not Active” and the Drug uptake [22] was “Not Active”. For the same compound, the IC50 [8] was 0.3 nM.
With `N=C(N)NCCC[C@@H]1NC(=O)[C@H](Cc2cn(CCOCCO[Si]3(OCCOCCO)n4c5c6ccccc6c4/N=C4N=C(/N=c6/c7ccccc7/c(n63)=N/C3=NC(=N\5)/c5ccccc53)c3ccccc3\4)nn2)NC(=O)[C@@H](Cc2ccccc2)NC(=O)[C@H](CC(=O)O)NC(=O)CNC1=O` (stereo partly drawn) the IC50 [1] was 39 nM, the Stability [2] was “Unstable” and the “Ratio IC50” value [3] was 1. The “Ratio IC50” value [4] was 1.11, the IC50 [5] was 35 nM and the IC50 [6] was 33 nM. The Activity [9] was “Not Active”, the Activity [10] was “Not Active” and the Activity [11] was “Not Active”. The IC50 [8] was 33 nM.
